Laboratory results reported in paper PMC8351955, “Targeting Mycobacterium tuberculosis response to environmental cues for the development of effective antitubercular drugs” (PLoS Biology, 2021).
Several values for one entry are separate records, joined by “and”; a condition that tells them apart may be missing. Equal entries are not always repeated. Where two headings read alike, the source gives them in different places.

Experiments:
Type in all cases: cell-based, Mycobacterium tuberculosis
[1] = system: CDC1551(rv2390c′::GFP) reporter Mtb strain, response to high [Cl−]; assay: microbe, parasite or virus in culture; details: for activity at 10 µM / activity at 20 µM / IC50: Mycobacterium tuberculosis; for activity at 10 µM / activity at 20 µM: 144 h; for activity at 20 µM: read-out: rv2390c'::GFP validation assay NPA% at 20 µM compound; for IC50: read-out: ShuminTan.MtbChloride.Validation: IC50; for ShuminTan.MtbChloride.Primary: NPI%: primary screen, Sheet2
[2] = system: CDC1551(rv1405c′::GFP) reporter Mtb strain; assay: microbe, parasite or virus in culture; details: for activity at 10 µM / activity at 20 µM / IC50: Mycobacterium tuberculosis; for activity at 10 µM: read-out: rv1405c'::GFP secondary assay NPA% at 10 µM compound; for activity at 20 µM: read-out: rv1405c'::GFP secondary assay NPA% at 20 µM compound; for IC50: read-out: ShuminTan.MtbChloride.Secondary: IC50
[3] = system: Mtb growth in J774 murine macrophage-like cells; assay: microbe, parasite or virus in culture; details: Mycobacterium tuberculosis; for inhibition at 10 µM: read-out: J774 tertiary assay % inhibition compared to Rif at 10 µM compound; for IC50: J774 dose response 0.039-20 µM, read-out: ShuminTan.Mtb.Validation.Macrophage: IC50
[4] = system: Mtb growth in J774 macrophage-like cells; assay: J774 infection in 96-well plates, mKO fluorescence 6 days post-infection; details: for % Growth: Fig. 2D, DMSO = 100
Description: For J774 infection in 96-well plates, 1.8 × 10^5 J774 cells were seeded per well in 180 μl of J774 infection media 1 day prior to infection. On the day of the assay, log-phase Mtb constitutively expressing mKO were pelleted and resuspended in 1 ml basal uptake buffer, passed 6× through a tuberculin syringe with a 25 G × 5/8″ needle, then resuspended in J774 infection media to a final OD600 = 0.2. Media was removed from 96-well plate containing the J774 cells, with 140 μl of fresh J774 infection media added back to each well. A volume of 40 μl of the Mtb suspension at OD600 = 0.2 was added to each well, followed by addition of appropriate concentration of compound or DMSO in a 20-μl final volume in J774 infection media (compound final concentration 10 μM, rifampicin final concentration 5 μM, DMSO final concentration 0.1%/well). Bacterial mKO fluorescence was read immediately after infection using a Biotek Synergy Neo2 microplate reader (bottom read monochromator, excitation 543/10 nm, emission 565/10 nm), and again 6 days post-infection. Plates were kept in humidified ziplock bags in a 37°C, 5% CO2 incubator. mKO fluorescence in DMSO-treated control samples were defined as 100% growth, and fluorescence observed in treatment conditions calculated as a percentage from that set value.

[5] = pH 6.4, […], DMSO positive control = 100%, read-out: Primary screen rv2390c'::GFP NPA%
[6] = 10 µM, pH 6.4, 250 mM NaCl, 6 days, read-out: rv2390c'::GFP validation assay NPA% at 10 µM compound
[7] = J774, 144 h, read-out: J774 tertiary assay % inhibition compared to Rif at 20 µM compound
[8] = J774, read-out: %inhibition compared to Rif in J774 at 20 uM

## CN(CC(O)c1ccccc1Cl)C1CCc2ccccc21 (centres unmarked) [RU-0271187, CN(CC(O)C1=C(Cl)C=CC=C1)C1CCC2=C1C=CC=C2]
[1]; [5]
  activity at 10 µM: 166%
[1]; [6]
  activity at 10 µM: 138 ± 7.4%
[1]; pH 6.4, 250 mM NaCl, 6 days
  activity at 20 µM: 207 ± 9.5%
[2]
  activity at 10 µM: 228 ± 8.7%
  activity at 20 µM: 461 ± 7.9%
[3]; J774, 144 h
  inhibition at 10 µM: 4.8 ± 0.1%
[3]; [7]
  inhibition at 20 µM: 36.1 ± 0.1%

## Cc1cccc(C)c1OC1CCN(c2cncc(C(N)=O)n2)CC1 [RU-0273431, CC1=CC=CC(C)=C1OC1CCN(CC1)C1=NC(=CN=C1)C(N)=O]
[1]; [5]
  activity at 10 µM: 151%
[1]; [6]
  activity at 10 µM: 136 ± 9.1%
[1]; pH 6.4, 250 mM NaCl, 6 days
  activity at 20 µM: 135 ± 17.7%
[2]
  activity at 10 µM: 145 ± 16%
  activity at 20 µM: 159 ± 12.5%
[3]; J774, 144 h
  inhibition at 10 µM: 21.4 ± 7.4%
[3]; [7]
  inhibition at 20 µM: 34.9 ± 5.2%

## Cc1ccc(NS(=O)(=O)c2ccc(C)c(F)c2)c(C(=O)O)c1 [RU-0273440, CC1=CC(C(O)=O)=C(NS(=O)(=O)C2=CC(F)=C(C)C=C2)C=C1]
[1]
  validation NPI at 10 uM: 60.2
  validation NPI at 20 uM: 37.8
  IC50: > 20 µM
  ShuminTan.MtbChloride.Primary: NPI%: 49.3142%
[1]; [5]
  activity at 10 µM: 49.3%
[1]; [6]
  activity at 10 µM: 60.2 ± 7.2%
[1]; pH 6.4, 250 mM NaCl, 6 days
  activity at 20 µM: 37.7 ± 5.2%
[2]
  rv1405c assay NPI at 10 uM: 34
  rv1405c assay NPI at 20 uM: 23.8
  IC50: < 0.0391 µM
  activity at 10 µM: 33.8 ± 5.6%
  activity at 20 µM: 23.3 ± 4.7%
[3]; [8]
  inhibition at 20 µM: 18.3%
[3]
  IC50: > 20 µM

## N#Cc1nc(NC(=O)c2ccc(N3CCCC3)c(F)c2)[nH]c1C#N [RU-0274370, FC1=C(C=CC(=C1)C(=O)NC1=NC(C#N)=C(N1)C#N)N1CCCC1]
[1]; [5]
  activity at 10 µM: 227%
[1]; [6]
  activity at 10 µM: 143 ± 10%
[1]; pH 6.4, 250 mM NaCl, 6 days
  activity at 20 µM: 268 ± 20.8%
[2]
  activity at 10 µM: 181 ± 7.8%
  activity at 20 µM: 363 ± 8.7%
[3]; J774, 144 h
  inhibition at 10 µM: 22.2 ± 0.2%
[3]; [7]
  inhibition at 20 µM: 25.3 ± 4.1%

## O=C(Nc1ccc(OCC(F)(F)F)nc1)N1CCCCCCC1 [RU-0275323, FC(F)(F)COC1=NC=C(NC(=O)N2CCCCCCC2)C=C1]
[1]
  validation NPI at 10 uM: 88.4
  validation NPI at 20 uM: 51.1
  IC50: 13 µM
  ShuminTan.MtbChloride.Primary: NPI%: 45.0537%
[1]; [5]
  activity at 10 µM: 45.1%
[1]; [6]
  activity at 10 µM: 87.5 ± 8%
[1]; pH 6.4, 250 mM NaCl, 6 days
  activity at 20 µM: 49.4 ± 7.1%
[2]
  rv1405c assay NPI at 10 uM: 111
  rv1405c assay NPI at 20 uM: 112
  IC50: < 0.0391 µM
  activity at 10 µM: 111 ± 5.5%
  activity at 20 µM: 112 ± 10.6%
[3]; [8]
  inhibition at 20 µM: 15.8%
[3]
  IC50: > 20 µM

## COc1ccc(Cl)c(NS(=O)(=O)c2cnc(Cl)n2C)c1 [RU-0278036, COC1=CC(NS(=O)(=O)C2=CN=C(Cl)N2C)=C(Cl)C=C1]
[1]; [5]
  activity at 10 µM: 48.8%
[1]; [6]
  activity at 10 µM: 87.6 ± 8%
[1]; pH 6.4, 250 mM NaCl, 6 days
  activity at 20 µM: 50 ± 7.7%
[2]
  activity at 10 µM: 75.9 ± 12.9%
  activity at 20 µM: 152 ± 19.9%
[3]; J774, 144 h
  inhibition at 10 µM: 23.9 ± 12.9%
[3]; [7]
  inhibition at 20 µM: 61.5 ± 2.6%

## CO[C@H]1/C=C/O[C@@]2(C)Oc3c(C)c(O)c4c(O)c(c(/C=N/N5CCN(C)CC5)c(O)c4c3C2=O)NC(=O)/C(C)=C\C=C\[C@H](C)[C@H](O)[C@@H](C)[C@@H](O)[C@@H](C)[C@H](OC(C)=O)[C@@H]1C [Rif, rifampicin, reference compound]
[4]; 5 μM rifampicin, 6 days post-infection, DMSO = 100%, Fig 1H
  % growth of Mtb in J774 cells, average: 8.618%
[4]; average of 4 replicates
  % Growth: 10.744%
[4]; individual replicates
  % Growth: 10.4241% and 10.7119% and 11.5524% and 10.2878%
